Experimental findings from patent publication US20030100550A1, “Carboxamide diazepin derivatives, preparation method, use as medicines, pharmaceutical compositions and use thereof” (priority 2002, published 2003) are described below.

The target in the first experiment is T1, Cathepsin K (Homo sapiens, UniProt P43235).
T1 sequence (P43235 115-329): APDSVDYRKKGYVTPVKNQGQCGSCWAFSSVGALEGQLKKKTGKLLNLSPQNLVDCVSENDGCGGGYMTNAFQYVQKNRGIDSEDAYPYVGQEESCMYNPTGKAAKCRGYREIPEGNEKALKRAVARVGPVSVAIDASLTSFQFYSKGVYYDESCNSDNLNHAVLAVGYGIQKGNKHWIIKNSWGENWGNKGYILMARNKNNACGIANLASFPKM
In words: Study of Cathepsin K inhibition (fluorescence, Z-Val-arg-AMC). The class given is biochemical.
Conditions: not given
The protocol: Study of Cathepsin K Inhibition:
The products to be tested (10 mM) are diluted to […] in DMSO and distributed into Nunc polystyrene 96 well plates at a rate of 2 μl per well. Column 12 of the plate is reserved for the controls and therefore receives […] of DMSO (without products) per well. The plates are stored at −80° C. and thawed on the day of the experiment.
The products are diluted to 50 μM by adding 38 μl of reaction buffer: sodium acetate 100 mM, EDTA 5 mM, DTT […] pH 5.5. The addition as well as all the operations by pipette are carried out with a CybiWell 96 tip pipette. After mixing the solutions, each product is transferred into 2 wells (duplicates) of a Greiner black 384 well plate at a rate of 10 μl per well. Two 96-well plates can therefore be tested in a 384-well plate.
A solution of substrate at 50 μM, Z-Val-arg-AMC (Calbiochem), is prepared in the reaction buffer. The substrate, is then distributed into all the wells of the 384-well plate (20 μl per well).
A solution of Cathepsin K at 12.5 ng/ml is prepared in the reaction buffer and distributed into all the wells of the 384-well plate (20 μl per well) except for the 16 wells serving as 100% inhibition controls (column 23 and 24, lines I to P) which receive 20 μl of enzyme-free buffer.
The plates are then incubated 2H at ambient temperature, then read on Fluoroskan (Labsystems): excitation 390 nm; emission 460 nm
The final concentrations of each of the reagents are: products 10 μM, substrate 20 μM, enzyme 5 ng/ml.
The % inhibition for each of the products is calculated by using points at 0 and 100% inhibition of each plate as references. The products presenting a significant inhibition are then retested on a range of concentrations from 50 to 0.5 μM to determine an IC50.
For the compound `C=CCOC(=O)CC[C@H](NC(=O)[C@@H]1CCCN2C(=O)CC[C@H](NS(=O)(=O)c3ccc4ccccc4c3)C(=O)N12)C(=O)CN1CCN(CC(=O)N2CCCC2)CC1` [Example 117], the IC50 (usually the concentration needed to halve the response being measured) came to 7 µM.

The experiment is the same for the next values; noted with them: printed beside 20 μM; meaning not explained.
Regarding `C=CCOC(=O)CC[C@H](NC(=O)[C@@H]1CCCN2C(=O)CCC[C@H](NC(=O)Nc3ccc(Oc4ccccc4)cc3)C(=O)N12)C(=O)COC(C)=O` [Example 133], the “Cathepsin K, percentage in parentheses beside IC50 value (% inhibition)” value is listed as 25%.

The same experiment, now with this note: substrate Z-Val-arg-AMC 20 μM, enzyme 5 ng/ml, 2H at ambient temperature; read-out: Cathepsin K IC50.
In the case of `C=CCOC(=O)CC[C@H](NC(=O)[C@@H]1CCCN2C(=O)CC[C@H](NC(=O)C(C)C)C(=O)N12)C(=O)C=[N+]=[N-]` [Example 38, (2-propenyl)(4S)6-diazo-4-[[[(1S,9S)-9-[(2-methyl-1-oxo-propyl)amino]-octahydro-6,10-dioxo-6H-pyridazino[1,2-a][1,2]diazepine-1-yl]carbonyl]amino]-5-oxo-hexanoate], the IC50 turned out to be 5 µM.
The same measure, in the same setting: as for `C=CCOC(=O)CC[C@H](NC(=O)[C@@H]1CCCN2C(=O)CC[C@H](NC(=O)c3cccc(OC)c3)C(=O)N12)C(=O)C=[N+]=[N-]` [Example 39, (2-propenyl)(4S)6-diazo-4-[[[(1S,9S)-9-[(3-methoxybenzoyl)amino]-octahydro-6,10-dioxo-6H-pyridazino[1,2-a][1,2]diazepine-1-yl]carbonyl]amino]-5-oxo-hexanoate], the figure is 3 µM.
Same read-out and setting: as for `C=CCOC(=O)CC[C@H](NC(=O)[C@@H]1CCCN2C(=O)CC[C@H](NC(=O)c3ccco3)C(=O)N12)C(=O)C=[N+]=[N-]` [Example 40, (2-propenyl)(4S)6-diazo-4-[[[(1S,9S)-9-[[(2-furanyl)carbonyl]amino]-octahydro-6,10-dioxo-6H-pyridazino[1,2-a][1,2]diazepine-1-yl]carbonyl]amino]-5-oxo-hexanoate], the figure is 1.8 µM; as for `C=CCOC(=O)CC[C@H](NC(=O)[C@@H]1CCCN2C(=O)CC[C@H](NC(=O)NC3CCCCC3)C(=O)N12)C(=O)C=[N+]=[N-]` [Example 42, (2-propenyl)(4S)6-diazo-4-[[[(1S,9S)-9-[[(cyclohexylamino)carbonyl]amino]-octahydro-6,10-dioxo-6H-pyridazino[1,2-a][1,2]diazepine-1-yl]carbonyl]amino]-5-oxo-hexanoate], 4 µM.
For the compound `C=CCOC(=O)CC[C@H](NC(=O)[C@@H]1CCCN2C(=O)CC[C@H](NS(C)(=O)=O)C(=O)N12)C(=O)C=[N+]=[N-]` [Example 45, (2-propenyl)(4S)6-diazo-4-[[[(1S,9S)-9-[(methylsulphonyl)amino]-octahydro-6,10-dioxo-6H-pyridazino[1,2-a][l,2]diazepine-1-yl]carbonyl]amino]-5-oxo-hexanoate], the IC50 is 0.9 µM.
The same measure, in the same setting: as for `C=CCOC(=O)CC[C@H](NC(=O)[C@@H]1CCCN2C(=O)CC[C@H](NS(=O)(=O)c3ccc(C(F)(F)F)cc3)C(=O)N12)C(=O)C=[N+]=[N-]` [Example 46, (2-propenyl)(4S)6-diazo-4-[[[(1S,9S)-9-[[[4-(trifluoromethyl)phenyl]sulphonyl]amino]-octahydro-6,10-dioxo-6H-pyridazino[1,2-a][1,2]diazepine-1-yl]carbonyl]amino]-5-oxo-hexanoate], the figure is 6 µM; as for `C=CCOC(=O)CC[C@H](NC(=O)[C@@H]1CCCN2C(=O)CC[C@H](NS(=O)(=O)c3ccc4ccccc4c3)C(=O)N12)C(=O)C=[N+]=[N-]` [Example 47, (2-propenyl)(4S)6-diazo-4-[[[(1S,9S)-9-[[(2-naphthalenyl)sulphonyl]amino]-octahydro-6,10-dioxo-6H-pyridazino[1,2-a][1,2]diazepine-1-yl]carbonyl]amino]-5-oxo-hexanoate], 5 µM; as for `C=CCOC(=O)CC[C@H](NC(=O)[C@@H]1CCCN2C(=O)CC[C@H](NS(=O)(=O)c3ccc(C(F)(F)F)cc3)C(=O)N12)C(=O)CN1CCN(CC(=O)N2CCCC2)CC1` [Example 107], 20 µM.
The same measure, in the same setting: with `C=CCOC(=O)CC[C@H](NC(=O)[C@@H]1CCCN2C(=O)CCC[C@H](NC(=O)Nc3ccc(Oc4ccccc4)cc3)C(=O)N12)C(=O)COC(C)=O` [Example 133] the figure was 20 µM; with `C=CCOC(=O)CCC(NC(=O)C1CCCN2C(=O)CCC(NC(=O)NCCc3cccs3)C(=O)N12)C(=O)CSc1nnnn1-c1ccccc1` [Example 138, (2-propenyl)(4S)6-[(1-phenyl-1H-tetrazol-5-yl)thio]-4-[[[(1S,9S)-^9-[[[[^2-(thien-2-yl)-ethyl]amino]carbonyl]amino]-octahydro-6,10-dioxo-6H-pyridazino[1,2-a][1,2]diazepine-1-yl]carbonyl]amino]-5-oxo-hexanoate], 29 µM.
Still for that read-out and setting: with `[N-]=[N+]=CC(=O)[C@H](Cc1ccccc1)NC(=O)[C@@H]1CCCN2C(=O)CC[C@H](NC(=O)NCCc3cccs3)C(=O)N12` [Example 162] the figure was 20 µM; with `[N-]=[N+]=CC(=O)[C@H](Cc1ccccc1)NC(=O)[C@@H]1CCCN2C(=O)CC[C@H](NS(=O)(=O)c3ccc4ccccc4c3)C(=O)N12` [Example 165, 9-[(9S)-[(2-naphthalenyl)sulphonyl]amino]-N-( (2S)-4-diazo-1-phenyl-3-oxo-2-butyl)-octahydro-6,10-dioxo-6H-(1S)-pyridazino[1,2-a][1,2]diazepine-1-carboxamide], 20 µM.
Consider `C[C@H](NC(=O)[C@@H]1CCCN2C(=O)CC[C@H](NC(=O)Nc3ccc(Oc4ccccc4)cc3)C(=O)N12)C(=O)C=[N+]=[N-]` [Example 171, 9-[(9S)-[[(4-phenoxyphenyl)amino]carbonyl]amino]-N-((2S)-4-diazo-3-oxo-2-butyl)-octahydro-6,10-dioxo-6H-(1S)-pyridazino[1,2-a][1,2]diazepine-1-carboxamide], for which the IC50 was 8 µM.
The same measure, in the same setting: with `O=C(Nc1ccc(Oc2ccccc2)cc1)N[C@H]1CCC(=O)N2CCC[C@@H](C(=O)N[C@@H](Cc3ccccc3)C(=O)CN3CCC(Cc4ccccc4)CC3)N2C1=O` [Example 218, 9-[(9S)-[[(4-phenoxyphenyl)amino]carbonyl]amino]-N-[(2S)-4-[(4-phenylmethyl)-1-piperidinyl]-1-phenyl-3-oxo-2-butyl]-octahydro-6,10-dioxo-6H-(1S)-pyridazino[1,2-a][1,2]diazepine-1-carboxamide] the figure was 20 µM; with `CC(C)C[C@H](NC(=O)[C@@H]1CCCN2C(=O)CC[C@H](NC(=O)C(C)C)C(=O)N12)C(=O)C=[N+]=[N-]` [Example 339, 9-[(9S)-(2-methyl-1-oxo-propyl)amino]-N-((3S)-1-diazo-5-methyl-2-oxo-3-hexyl)-octahydro-6,10-dioxo-6H-(1S)-pyridazino[1,2-a][1,2]diazepine-1-carboxamide], 10 µM.
Still for that read-out and setting: with `COc1cccc(C(=O)N[C@H]2CCC(=O)N3CCC[C@@H](C(=O)N[C@@H](CC(C)C)C(=O)C=[N+]=[N-])N3C2=O)c1` [Example 340, 9-[(9S)-(3-methoxybenzoyl)amino]-N-((3S)-1-diazo-5-methyl-2-oxo-3-hexyl)-octahydro-6,10-dioxo-6H-(1S)-pyridazino[1,2-a][1,2]diazepine-1-carboxamide] the figure was 7 µM.
Still for that read-out and setting: as for `CC(C)C[C@H](NC(=O)[C@@H]1CCCN2C(=O)CC[C@H](NC(=O)c3ccco3)C(=O)N12)C(=O)C=[N+]=[N-]` [Example 341, 9-[(9S)-[(2-furanyl)carbonyl]amino]-N-((3S)-1-diazo-5-methyl-2-oxo-3-hexyl)-octahydro-6,10-dioxo-6H-(1S)-pyridazino[1,2-a][1,2]diazepine-1-carboxamide], the figure is 8 µM.
